Source: patent US20220409629A1, “BENZODIAZEPINE DERIVATIVES FOR TREATING A RESPIRATORY SYNCYTIAL VIRUS (RSV) INFECTION” (priority 2019, published 2022)

Legend:
[1] = test system: RSV A2; experiment: RSV plaque reduction assay; format: cell-based, respiratory syncytial virus (RSV); conditions: human respiratory syncytial virus, HepG2; Hep-G2 cells, RSV A2, mean of at least two experiments
How it was run: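 RSV A2 (100 PFU/well) premixed with eight serial compound dilutions, added to confluent Hep-G2 monolayers for 2 h at 37° C, then held 2 days under CMC overlay containing compound (DMEM, 2% FBS). Plaques immunostained (HRP/TrueBlue) and counted; EC50 is 50% reduction versus virus control from 4-parameter fit, mean of ≥2 experiments.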

[2] = Liver hepatocyte stability, human; format: in vitro ADME; conditions: human hepatocytes, 3 μM compound, 60 min, >80% remaining at 60 min denoted >186, read-out: Liver Hepatocyte Stability: t1/2 (min)
Protocol: (§1) Cryopreserved pooled hepatocytes were purchased from a reputable commercial supplier and stored in liquid nitrogen prior to use. Williams E media supplemented with 2 mM L-glutamine and 25 mM HEPES and test compound (final substrate concentration 3 μM; final DMSO concentration 0.25%) are pre-incubated at 37° C. prior to the addition of a suspension of cryopreserved hepatocytes (final cell density 0.5×10^6 viable cells/mL in Williams E media supplemented with 2 mM L-glutamine and 25 mM HEPES) to initiate the reaction. The final incubation volume is 500 μL. Two control compounds were included with each species, alongside appropriate vehicle control. The reactions are stopped by transferring 50 μL of incubate to 100 μL acetonitrile containing internal standard at the appropriate time points. Samples were removed at 6 time points (0, 5, 15, 30, 45 and 60 min) over the course of a 60 min experiment. The termination plates are centrifuged at 2500 rpm at 4° C. for 30 min to precipitate the protein. Following protein precipitation, the sample supernatants were combined in cassettes of up to 4 compounds and analysed using generic LC-MS/MS conditions. From a plot of ln peak area ratio (compound peak area/internal standard peak area) against time, the gradient of the line is determined. Subsequently, half-life (t1/2) and intrinsic clearance (CLint) were calculated.

[3] = Liver microsomal stability, dog; format: in vitro ADME; conditions: pH 7.4; dog liver microsomes, 0.5 mg/mL protein, 1 μM compound, NADPH; >80% remaining at 45 min denoted >140; read-out: Liver Microsomal Stability: t1/2 (min); dog
How it was run: (§2)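 Pooled liver microsomes (0.5 mg/mL protein) in 0.1 M phosphate pH 7.4 with 1 μM compound (0.25% DMSO), started with 1 mM NADPH at 37° C; sampled 0-45 min, minus-NADPH control 45 min. LC-MS/MS depletion slope gave t1/2 and CLint.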

[4] = Liver hepatocyte stability, dog; format: in vitro ADME; conditions: dog hepatocytes, 3 μM compound, 60 min, >80% remaining at 60 min denoted >186, read-out: Liver Hepatocyte Stability: t1/2 (min)
Protocol: as §1

[5] = Liver hepatocyte stability, rat; format: in vitro ADME; conditions: rat hepatocytes, 3 μM compound, 60 min, >80% remaining at 60 min denoted >186, read-out: Liver Hepatocyte Stability: t1/2 (min)
Protocol: as §1

[6] = Liver microsomal stability, rat; format: in vitro ADME; conditions: pH 7.4; rat liver microsomes, 0.5 mg/mL protein, 1 μM compound, NADPH; >80% remaining at 45 min denoted >140; read-out: Liver Microsomal Stability: t1/2 (min); rat
How it was run: as §2

[7] = Cell cytotoxicity CC50; format: cell-based; conditions: human; mean of at least two experiments
[8] = Rat pharmacokinetics in vivo; conditions: male Sprague Dawley rats; for C 8 h / Cmax: doses 1 mg/kg (IV) and 10 mg/kg (PO); for Vd / clearance / bioavailability / half-life / AUC(0-t) / Cmax: rat, in vivo; for AUC(0-t): read-out: PO AUClast
Protocol: The pharmacokinetics of compounds were studied in vivo in rats at doses of 1 mg/kg (IV) and 10 mg/kg (PO).
Male rats (Sprague Dawley) surgically prepared with a jugular vein cannula were treated with experimental compounds via intravenous administration (IV; n=3; 1 mg/kg) or oral administration (PO; n=3; 10 mg/kg). Compounds were formulated as a solution in 40:60 dimethylacetamide:saline (IV administration), a suspension in 1% methyl cellulose (viscosity: 15 cP), 0.1% Tween80 in water (PO administration: Example 3), a solution in 10% DMSO/10% Cremaphor/80% water (PO administration: Examples 4, 11, 21, 23, 25, 26, 32) or a solution in 10% DMSO/20% Cremaphor/70% water (PO administration: Examples 19, 20, 22, 24, 30). […] Serial blood samples were collected via the cannula at 0.02, 0.08, 0.25, 0.5, 1, 2, 4, 6, 8 and 24 h post IV dosing of compound, and at 0.08, 0.25, 0.5, 1, 2, 4, 6, 8 and 24 h post oral dosing of compound, and plasma was prepared by centrifugation and stored immediately at −80° C. Samples were subsequently thawed, prepared for analysis by protein precipitation with acetonitrile, and analysed by tandem LCMS using electrospray ionisation using a matrix-matched calibration curve. PK parameters were calculated from the resulting data.

[9] = Liver microsomal stability, human; format: in vitro ADME; conditions: pH 7.4; human liver microsomes, 0.5 mg/mL protein, 1 μM compound, NADPH; >80% remaining at 45 min denoted >140; read-out: Liver Microsomal Stability: t1/2 (min); human
How it was run: as §2

[10] = IV 1 mg/kg, read-out: IV t½ (converted)
[11] = PO 10 mg/kg, read-out: PO t½ (converted)

SMILES | EC50 [1] | half-life [2] | half-life [3] | half-life [4] | half-life [5] | half-life [6] | CC50 [7] | C 8 h [8] | Vd ([8]; IV 1 mg/kg) | clearance ([8]; IV 1 mg/kg) | bioavailability ([8]; IV 1 mg/kg, PO 10 mg/kg) | half-life [8, 10] | AUC(0-t) ([8]; PO 10 mg/kg) | half-life [8, 11] | Cmax [8] | half-life [9]
CCn1ncc(C(=O)N[C@H]2N=C(c3ccccc3)c3cccc(F)c3NC2=O)c1-c1ccc(NC2CC2)nc1F [Example 11, 5-[6-(Cyclopropylamino)-2-fluoropyridin-3-yl]-1-ethyl-N-[(3S)-9-fluoro-2-oxo-5-phenyl-1,3-dihydro-1,4-benzodiazepin-3-yl]pyrazole-4-carboxamide] | 62 nM | 194 min | 24 min | 48.2 min | 151 min | 76.3 min | > 25000 nM | 673 ng/mL | 2 L/kg | 13.9 mL/min/kg | 93% | 3.2 h | 11200 ng·h/mL | 2.2 h | 984 ng/mL | 82.4 min
O=C(N[C@H]1N=C(c2ccccc2)c2cccc(F)c2NC1=O)c1cnn(C2COC2)c1-c1ccc(NC2CC2)nc1F [Example 19, 5-[6-(Cyclopropylamino)-2-fluoropyridin-3-yl]-1-(oxetan-3-yl)-N-[(3S)-9-fluoro-2-oxo-5-phenyl-1,3-dihydro-1,4-benzodiazepin-3-yl]pyrazole-4-carboxamide] | 37 nM | > 186 min | 90.8 min | 72.2 min | 185 min | > 140 min | > 25000 nM | 315 ng/mL | 1.6 L/kg | 14.3 mL/min/kg | 64.6% | 1.7 h | 7290 ng·h/mL | 3 h | 1320 ng/mL | 154 min
O=C(N[C@H]1N=C(c2ccccc2)c2ccccc2NC1=O)c1cnn(C2CCOCC2)c1-c1ccc(NC2CC2)nc1F [Example 20, 5-[6-(Cyclopropylamino)-2-fluoropyridin-3-yl]-N-[(3S)-2-oxo-5-phenyl-1,3-dihydro-1,4-benzodiazepin-3-yl]-1-(oxan-4-yl)pyrazole-4-carboxamide] | 59 nM | 190 min | 325 min | > 186 min | 115 min | 116 min | > 25000 nM | 25.7 ng/mL | 2.9 L/kg | 32.9 mL/min/kg | 23.9% | 1.5 h | 1170 ng·h/mL | 1.4 h | 258 ng/mL | 83.1 min
CC(C)Nc1ccc(-c2c(C(=O)N[C@H]3N=C(c4ccccc4)c4ccccc4NC3=O)cnn2C2CCOCC2)c(F)n1 [Example 23, 5-[2-Fluoro-6-(propan-2-ylamino)pyridin-3-yl]-1-(oxan-4-yl)-N-[(3S)-2-oxo-5-phenyl-1,3-dihydro-1,4-benzodiazepin-3-yl]pyrazole-4-carboxamide] | 50 nM | > 186 min | – | 127 min | 96.7 min | – | > 25000 nM | 146 ng/mL | 1.7 L/kg | 12.2 mL/min/kg | 34.7% | 2.2 h | 4630 ng·h/mL | 3 h | 930 ng/mL | –
CCn1cc(C(=O)N[C@H]2N=C(c3ccccc3)c3ccccc3NC2=O)c(-c2ccc(NC3CC3)nc2F)n1 [Example 25, 3-[6-(Cyclopropylamino)-2-fluoropyridin-3-yl]-1-ethyl-N-[(3S)-2-oxo-5-phenyl-1,3-dihydro-1,4-benzodiazepin-3-yl]pyrazole-4-carboxamide] | 49 nM | 506 min | 17 min | 68.1 min | > 186 min | 46.3 min | > 25000 nM | 294 ng/mL | 0.9 L/kg | 15.9 mL/min/kg | 71.5% | 1.3 h | 7470 ng·h/mL | 2.7 h | 1150 ng/mL | 82.8 min
CCn1cc(C(=O)N[C@H]2N=C(c3ccccc3)c3cccc(F)c3NC2=O)c(-c2ccc(NC3CC3)nc2F)n1 [Example 26, 3-[6-(Cyclopropylamino)-2-fluoropyridin-3-yl]-1-ethyl-N-[(3S)-9-fluoro-2-oxo-5-phenyl-1,3-dihydro-1,4-benzodiazepin-3-yl]pyrazole-4-carboxamide] | 36 nM | > 186 min | 30.8 min | 160 min | > 186 min | 70.2 min | > 25000 nM | 919 ng/mL | 1.1 L/kg | 8.2 mL/min/kg | 95.6% | 2.6 h | 19400 ng·h/mL | 2.6 h | 2120 ng/mL | 84.9 min
CC(C)(C)n1cc(C(=O)N[C@H]2N=C(c3ccccc3)c3cccc(F)c3NC2=O)c(-c2ccc(NC3CC3)nc2F)n1 [Example 30, 1-tert-Butyl-3-[6-(cyclopropylamino)-2-fluoropyridin-3-yl]-N-[(3S)-9-fluoro-2-oxo-5-phenyl-1,3-dihydro-1,4-benzodiazepin-3-yl]pyrazole-4-carboxamide] | 32 nM | 71.3 min | 63.7 min | > 186 min | 98.5 min | 53.1 min | > 25000 nM | 444 ng/mL | 1.4 L/kg | 11.2 mL/min/kg | 57% | 1.8 h | 8540 ng·h/mL | 3 h | 918 ng/mL | 253 min
CCNc1ccc(-c2c(C(=O)N[C@H]3N=C(c4ccccc4)c4ccccc4NC3=O)cnn2C2CCOCC2)c(F)n1 [Example 42, 5-[6-(Ethylamino)-2-fluoropyridin-3-yl]-1-(oxan-4-yl)-N-[(3S)-2-oxo-5-phenyl-1,3-dihydro-1,4-benzodiazepin-3-yl]pyrazole-4-carboxamide] | 41 nM | 421 min | 480 min | 100 min | 72.3 min | 85.8 min | > 25000 nM | – | – | – | – | – | – | – | – | 194 min
